Results from patent US10907212B2, “Inhibitors of cell adhesion” (Regents of the University of Minnesota, priority 2016, dated 2021).
Entries after “also recorded” stand apart in the source; their conditions may differ. Where no end group is shown, it is not given here.

How the values were obtained:
[1] = system: NIH:OVCAR5 control shRNA and NIH:OVCAR5-VB3 cells; assay: Spheroid formation of cells pretreated with mitomycin C; type: cell-based, human; conditions: data not shown
Experimental: (§1) Spheroids were formed from the NIH:OVCAR5 cell lines described above using the liquid overlay method. One milliliter of a single cell suspension was seeded at a concentration of 50,000 cells/ml in OptiMEM® media, into 24-well tissue culture plates coated with 0.5% Seakem agarose (in complete RPMI-1640). Plates were incubated at 37° C. in a humidified incubator with 5% CO2. At various time points up to 5 days, the plates were removed from the incubator and the spheroids were photographed with a Nikon CoolPix digital camera mounted on an Olympus CK2 inverted microscope with a 4× objective. The size of the spheroids was determined using the measure tool in Adobe Photoshop. The largest spheroids were quantified (20-90 spheroids/well), in a minimum of 8 wells, for a total of >300 spheroids per cell type.
Ovarian cancer is unique in that tumor cells commonly grow within the peritoneal cavity as free floating multi-cellular aggregates (spheroids) in the ascites fluid. […] Spheroids formed by both cell types appeared tightly aggregated, in contrast to previous results with the cell adhesion molecule claudin-4, where cells depleted of claudin-4 formed spheroids more slowly and the spheroids formed had increased paracellular permeability. […]

[2] = system: adhesion of NIH:OVCAR5-N4-over cells to recombinant human Nectin-1 extracellular domain; assay: Inhibition of NIH:OVCAR5-N4-over cell adhesion to recombinant Nectin-1 by synthetic nectin peptides; type: cell-based; conditions: 150 μg/ml peptide; 0.5 μg/well Nectin-1; 30 min adhesion; listed as N1-P20
Experimental: Black, clear-bottom 96-well microtiter plates (Corning, Imported Costar, Corning, N.Y.) were coated with recombinant human Nectin-1 extracellular domain (R&D Systems), recombinant human Nectin-4 extracellular domain (R&D Systems), mouse laminin (Invitrogen™), or bovine serum albumin (BSA; Probumin Diagnostic Grade, MilliPore) diluted in PBS. Covered plates were incubated overnight at 37° C. in a humidified incubator. After washing with PBS plus Ca^2+/Mg^2+ containing 2 mg/ml ovalbumin (Sigma-Aldrich), the plates were blocked for 1 hat 37° C. with 1% BSA in PBS without Ca^2+/Mg^2+. Confluent monolayers of NIH:OVCAR5 cells or NIH:OVCAR5-N4-over cells were detached with Accutase, and then filtered through a 40 μm cell strainer (BD Biosciences, San Jose, Calif.) to remove cell aggregates. The single cells were stained with CellTracker Green CMFDA (5-chloromethylfluorescein diacetate; Invitrogen™) according to the manufacturer's protocol. […] Plates were vigorously washed four times and read in a BioTek Synergy fluorescent microplate reader (BioTek, Winooski, V A). […]
Microtiter plates coated with recombinant Nectin-1 as described above were pre-incubated for 30 min at room temperature with 150 μg/ml Nectin-4 peptides in PBS in triplicate. CMFDA-stained NIH:OVCAR5-N4-over cells were then added to the wells and cell adhesion was quantified as described above. […]

[3] = system: nectin 4 protein on NIH:OVCAR-5 cells; assay: Effect of peptides on anti-Nectin-4 antibody binding to cells as determined by flow cytometry; type: cell-based, human; conditions: for IgG MFI: IgG control primary antibody; for nectin-4 antibody binding compared to untreated control cells (in words): flow cytometry; for Flow binding: summary table, Nectin-4 antibody binding relative to control = 100
Experimental: Confluent monolayers of cells were detached from 75 cm^2 tissue culture flasks using Accutase cell dissociation buffer (Innovative Cell Technologies, San Diego, Calif.), washed, and labeled with mouse IgG or mAbs against Nectin-4 or Nectin-1 (2.5 μg/10^6 cells) in Flow Buffer [phosphate buffered saline (PBS) containing 2.5% newborn calf serum and 0.02% sodium azide] for 30 min at 4° C.. Cells were washed and incubated with goat anti-mouse IgG F(ab′)2 (Jackson ImmunoResearch, West Grove, Pa.), then washed again and incubated with streptavidin-allophycocyanin conjugate (Jackson ImmunoResearch, West Grove, Pa.) for 30 min each. Cells were washed and fixed in Flow Buffer containing 1% formaldehyde and analyzed in the University of Minnesota Flow Cytometry Resource with a BD Accuri™ C6 flow cytometer (BD Biosciences, San Jose, Calif.) using the Accuri™ software.
Briefly, NIH:OVCAR-5 cells that natively express a moderate amount of nectin 4 protein were incubated for 30 minutes in 150 μg/mL of soluble peptide in DMSO. After incubation, the cells were washed, and then triple antibody stained using mouse anti-nectin 4 (or IgG control) primary antibody, biotinylated goat anti-mouse secondary antibody, and streptavidin APC tertiary antibody. Finally, utilizing the University of Minnesota flow core's Accuri C6 flow cytometer, the relative antibody binding affinity for control and peptide-treated samples was quantitated and compared. Data was collected for each of the 57 peptides generated.

[4] = system: ovarian cancer cell aggregation and spheroid formation; assay: Spheroid assay for peptides (visual scale +1 to +5); type: cell-based, human; conditions: visual scale of +1 to +5; for Spheroid-24: 24 hrs, Control = 2; for Spheroid-48: 48 hrs, Control = 4
Experimental: as §1
The clinical relevance is that by blocking the formation of spheroids, the cells will be more sensitive to chemotherapy (which targets the single cells that proliferate more rapidly than spheroids).
The spheroid assay for peptides 1-30 were scored using a visual scale of +1 to +5. The controls were scored at +2 (24 hrs) and +4 (48 hrs). […] It may be harder to visually assess the size at 24 hours, since the spheroids are relatively small, but and perhaps some of the peptides are affecting cell division, and that is why the spheroids are smaller than the controls at 48 hours, but not 24 hrs (this can be easily assayed with an MTT assay).

[5] = Run One, 150 μg/mL peptide, 30 minutes, Control 1 = 15,015
[6] = Run One, 150 μg/mL peptide, 30 minutes, Control 1 = 1,670
[7] = Run One, antibody binding relative to Control 1 = 100.00
[8] = Run Two, 150 μg/mL peptide, 30 minutes, Control 2 = 49,491
[9] = Run Two, antibody binding relative to Control 2 = 100.00

| Molecule | nectin-4 antibody binding compared to untreated control cells (in words) ([3]; 150 μg/mL peptide) | N4 MFI [3, 5] | IgG MFI [3, 6] | N4 MFI/IgG MFI ([3]; Run One, Control 1 = 8.99) | nectin-4 antibody binding, percent of control [3, 7] | Spheroid-24 [4] | Spheroid-48 [4] | N4 MFI [3, 8] | N4 MFI/IgG MFI ([3]; Run Two, Control 2 = 9.46) | IgG MFI ([3]; Run Two, Control 2 = 5,233) | nectin-4 antibody binding, percent of control [3, 9] | other results |
| --- | --- | --- | --- | --- | --- | --- | --- | --- | --- | --- | --- | --- |
| CO[C@@]12[C@H](COC(N)=O)C3=C(C(=O)C(C)=C(N)C3=O)N1C[C@@H]1N[C@@H]12 [mitomycin C] | – | – | – | – | – | – | – | – | – | – | – | aggregation of cells in presence of mitomycin C ([1]; NIH:OVCAR5-VB3 cells with Nectin-4 knocked down by shRNA): No difference was observed; spheroid size versus untreated control cells ([1]; shRNA control NIH:OVCAR5 cells, after 24 h): smaller than the untreated control cells |
| NWYLQRMDVKLTCK-NH2 (listed as Homo sapiens) [Peptide 49] | erroneous/outlier | – | – | – | – | – | – | – | – | – | – | effect on cell adhesion to Nectin-1 (in words) [2]: to a greater extent than the mAb against Nectin-1; also recorded: complete inhibition; N4 MFI/IgG MFI ([3]; Run Four, Control 4 = 9.387504873): 10.36; IgG MFI ([3]; Run Four, Control 4 = 1,026): 29486; nectin-4 antibody binding, percent of control ([3]; Run Four, antibody binding relative to Control 4 = 100): 3206 |
| TCVVSHPGLLQDQR-NH2 (listed as Homo sapiens) [Peptide 17] | – | 20,511 | 8,686 | 2.36 | 88.61 | 1 | 2 | – | – | – | – | – |
| TGNGIYINGRGHLV-NH2 (listed as Homo sapiens) [Peptide 29] | reduction in nectin-4 antibody binding | – | – | – | – | 3 | – | 18,643 | 6.04 | 3,087 | 35.15 | Flow binding [3]: 35% |
| TTEHSGIYVCHVSN-NH2 (listed as Homo sapiens) [Peptide 24] | – | – | – | – | – | – | 3 | 33,353 | 8.76 | 3,808 | 66.76 | – |
| VDVLDPQEDSGKQV-NH2 (listed as Homo sapiens) [Peptide 26] | – | – | – | – | – | 1 | 2 | 35,299 | 8.92 | 3,956 | 70.82 | – |
| VSPAYEGRVEQPPP-NH2 (listed as Homo sapiens) [Peptide 6] | – | 12,682 | 1,622 | 7.82 | 82.88 | 1 | 2 | – | – | – | – | – |
| VVLGQDAKLPCFYR-NH2 (listed as Homo sapiens) [Peptide 2] | – | 11,895 | 2,458 | 4.84 | 70.72 | – | 3 | – | – | – | – | – |
| WTRLDGPLPSGVRV-NH2 (listed as Homo sapiens) [Peptide 22] | increased nectin-4 antibody binding | – | – | – | – | 1 | 3 | 70,336 | 9.82 | 7,160 | 142.74 | Flow binding [3]: 143% |
| WTRLDGPLPSGVRVDGDT-NH2 (listed as Homo sapiens) [Peptide 28] | – | – | – | – | – | – | 2 | 41,302 | 10.83 | 3,815 | 84.70 | – |
| WTTLNGSLPKGVEAQNRT-NH2 (listed as Homo sapiens) [Peptide 57] | reduction in nectin-4 antibody binding | – | – | – | – | – | 3 | – | – | – | – | N4 MFI ([3]; Run Five, 150 μg/mL peptide, 30 minutes, Control 5 = 17,768.90): 14,705.92; N4 MFI/IgG MFI ([3]; Run Five, Control 5 = 2.142155332): 1.874; IgG MFI ([3]; Run Five, Control 5 = 8,294.87): 7,848.89; nectin-4 antibody binding, percent of control ([3]; Run Five, antibody binding relative to Control 5 = 100): 72.38 |
| YRGDSGEQVGQVAW-NH2 (listed as Homo sapiens) [Peptide 3] | reduction in nectin-4 antibody binding | 6,987 | 2,044 | 3.42 | 37.04 | – | 2 | – | – | – | – | Flow binding [3]: 37% |
